From PMC6896172, “Successful Targeting of the Warburg Effect in Prostate Cancer by Glucose-Conjugated 1,4-Naphthoquinones” (Cancers, 2019)

System: 22Rv1 cells
Experiment: Global proteome analysis (LC-MS/MS, DIA) of differentially expressed proteins
Type: cell-based, human
Protocol: 22Rv1 cells were seeded in T75 culture bottles (4 × 10^6 cells/bottle in 20 mL/bottle), treated for 48 h with the 5 µM of compound 11 or vehicle (DMSO), harvested by scratching, washed twice with ice-cold PBS and flash-frozen. Cells were lysed and sonicated. The protein extracts were then heat-denaturated, reduced, alkylated and digested by trypsin. Peptides were chromatographically separated using full recovery autosampler vials and a nano-UPLC system (Acquity, Waters Corporation, Milford, MS, USA), coupled via electrospray ionization (ESI) to a tandem mass spectrometer equipped with a quadrupole and an orbitrap (QExactive, Thermo Fisher Scientific, Bremen, Germany), using MS/MS mode in data dependent acquisition (DDA) and data independent acquisition (DIA). The peptides, analyzed with DDA-LC-MS/MS, were identified with the search engine Sequest, integrated in the Proteome Discoverer software version 2.0 (Thermo Fischer Scientific) using the human Uniprot protein database (EMBL; Hinxton Cambridge, UK, release December 2018). […] For the details of sample preparation and proceeding, data acquisition and analysis see the Supplementary information. […]
serum (FBS, Invitrogen) and 1% penicillin/streptomycin (Invitrogen)). […]
Cell lines were lysed in 100 mM triethylammonium bicarbonate and 1% w/v sodium deoxycholate buffer followed by probe sonication to destroy polynucleotides and heat induce protein denaturing at 99 °C for 5 min. Protein concentrations were estimated with a bicinchonic acid (BCA) protein assay (Thermo Fisher Scientific, Bremen, Germany). 20 µg of protein were reduced in presence of 10 mM dithiotreithol (Sigma Aldrich) for 30 min at 60 °C followed by cysteine alkylation with 20 mM iodo acetamide (Sigma Aldrich) for 30 min at 37 °C in the dark and enzymatic degradation with sequencing grade trypsin (Promega) over night at 37 °C. Digestion was quenched with 1% formic acid (FA), precipitated sodium deoxycholate removed by centrifugation for 5 min at 14,000 g and the supernatant was dried in a vacuum centrifuge.
LC-MS/MS in Data Dependent and Data Independent Mode
Samples were resuspended in 0.1% FA and transferred into a full recovery autosampler vial (Waters). Chromatographic separation was achieved on a nano -UPLC system (Acquity, Waters Corporation, Milford, MS, USA) with a two-buffer-system (buffer A: 0.1% FA in water, buffer B:
0.1% FA in Acetonitrile (ACN), both at pH = 3). Attached to the UPLC was a reversed -phase peptide trapping column (Symmetry C18, 180 µm × 20 mm, 100 Å pore size, 5 µm particle size) for desalting, followed by a reversed-phase capillary separation of the tryptic peptides (BEH C18; 75 µm × 200 mm, 130 Å pore size, 1.7 µm particle size), using a 60 min gradient with increasing ACN concentration from 2–30% ACN. The eluting peptides were analyzed on a quadrupole-orbitrap mass spectrometer (QExactive, Thermo Fisher Scientific, Bremen, Germany) in data dependent acquisition (DDA) and data independent acquisition (DIA) for quantification.
In DDA mode, one replicate of each cell line was randomly chosen and 1 µg per sample was used per LC-MS/MS run to build a reference spectral library used for data extraction of samples acquired in DIA mode. For DDA, the 12 most intense ions per precursor scan (1 × 10 6 ions, 70,000 Resolution, 120 ms fill time) were analyzed by MS/MS (HCD at 25 normalized collision energy, 1 × 105 ions, 17,500 Resolution, 50 ms fill time) in a range of 400–1300 m/z. A dynamic precursor exclusion of 20 s was used. For DIA, 1 µg of each sample was analyzed using a 30 sequential 20 Da fixed window method covering the mass range from 400 –1000 m/z. Per cycle, 2 precursor scans (1 × […]
28 normalized collision energy, 1 × 106 ions, 17,500 Resolution, 50 ms fill time) were performed.
After the first precursor scan, 15 MS/MS scans were performed covering the precursor mass range from 400–700 m/z followed by the second precursor scan and another 15 MS/MS scans ranging from […]
LC-MS/MS Data Processing and Analysis […]

Compound: CC1(C)OC2OC(C(O)COC3=CC(=O)c4cccc(O)c4C3=O)C(O)C2O1 (stereo not shown) [Compound 11]
- Fold change (treated / control) (protein ARID2_HUMAN (Q68CP9)): 0.5698
- Fold change (treated / control) (protein BAZ1B_HUMAN (Q9UIG0)): 0.5909
- Fold change (treated / control) (protein BCAM_HUMAN (P50895)): 0.2614
- Fold change (treated / control) (protein BRD1_HUMAN (O95696)): 0.5595
- Fold change (treated / control) (protein CBX5_HUMAN (P45973)): 0.6078
- Fold change (treated / control) (protein CCD86_HUMAN (Q9H6F5)): 0.6454
- Fold change (treated / control) (protein CEBPZ_HUMAN (Q03701)): 0.6117
- Fold change (treated / control) (protein CHCH5_HUMAN (Q9BSY4)): 0.3153
- Fold change (treated / control) (protein CISD1_HUMAN (Q9NZ45)): 0.6534
- Fold change (treated / control) (protein CLUS_HUMAN (P10909)): 0.6547
- Fold change (treated / control) (protein CMTD1_HUMAN (Q86VU5)): 0.6695
- Fold change (treated / control) (protein COASY_HUMAN (Q13057)): 0.6716
- Fold change (treated / control) (protein COQ5_HUMAN (Q5HYK3)): 0.6569
- Fold change (treated / control) (protein CPSF7_HUMAN (Q8N684)): 0.5898
- Fold change (treated / control) (protein CRIP2_HUMAN (P52943)): 0.5784
- Fold change (treated / control) (protein CX6B1_HUMAN (P14854)): 0.5635
- Fold change (treated / control) (protein DDX21_HUMAN (Q9NR30)): 0.6203
- Fold change (treated / control) (protein DDX50_HUMAN (Q9BQ39)): 0.5638
- Fold change (treated / control) (protein DDX52_HUMAN (Q9Y2R4)): 0.5706
- Fold change (treated / control) (protein DESP_HUMAN (P15924)): 0.5753
- Fold change (treated / control) (protein DHX30_HUMAN (Q7L2E3)): 0.6273
- Fold change (treated / control) (protein DPOE3_HUMAN (Q9NRF9)): 0.6062
- Fold change (treated / control) (protein E2AK2_HUMAN (P19525)): 0.6134
- Fold change (treated / control) (protein EDF1_HUMAN (O60869)): 0.6154
- Fold change (treated / control) (protein EFTU_HUMAN (P49411)): 0.6185
- Fold change (treated / control) (protein ELOV5_HUMAN (Q9NYP7)): 0.5895
- Fold change (treated / control) (protein FAKD2_HUMAN (Q9NYY8)): 0.6444
- Fold change (treated / control) (protein FKB10_HUMAN (Q96AY3)): 0.625
- Fold change (treated / control) (protein FKBP8_HUMAN (Q14318)): 0.6712
- Fold change (treated / control) (protein GCN1_HUMAN (Q92616)): 0.6676
- Fold change (treated / control) (protein GRSF1_HUMAN (Q12849)): 0.6529
- Fold change (treated / control) (protein H2AY_HUMAN (O75367)): 0.6499
- Fold change (treated / control) (protein HSPB6_HUMAN (O14558)): 0.6349
- Fold change (treated / control) (protein IF4A1_HUMAN (P60842)): 0.6202
- Fold change (treated / control) (protein IMA1_HUMAN (P52292)): 0.5682
- Fold change (treated / control) (protein IQEC2_HUMAN (Q5JU85)): 0.6175
- Fold change (treated / control) (protein K2013_HUMAN (Q8IYS2)): 0.3342
- Fold change (treated / control) (protein LRWD1_HUMAN (Q9UFC0)): 0.5648
- Fold change (treated / control) (protein MAP2_HUMAN (P50579)): 0.6543
- Fold change (treated / control) (protein MCM3_HUMAN (P25205)): 0.6329
- Fold change (treated / control) (protein MCM4_HUMAN (P33991)): 0.5634
- Fold change (treated / control) (protein MCM5_HUMAN (P33992)): 0.5949
- Fold change (treated / control) (protein MCM6_HUMAN (Q14566)): 0.6119
- Fold change (treated / control) (protein MCM7_HUMAN (P33993)): 0.5855
- Fold change (treated / control) (protein MIPEP_HUMAN (Q99797)): 0.6023
- Fold change (treated / control) (protein MTA1_HUMAN (Q13330)): 0.5631
- Fold change (treated / control) (protein MTA2_HUMAN (O94776)): 0.5939
- Fold change (treated / control) (protein MYOME_HUMAN (Q5VU43)): 0.6576
- Fold change (treated / control) (protein NDUA3_HUMAN (O95167)): 0.3195
- Fold change (treated / control) (protein NDUAC_HUMAN (Q9UI09)): 0.6076
- Fold change (treated / control) (protein NDUV1_HUMAN (P49821)): 0.6332
- Fold change (treated / control) (protein NUDC_HUMAN (Q9Y266)): 0.6476
- Fold change (treated / control) (protein P4HTM_HUMAN (Q9NXG6)): 0.3114
- Fold change (treated / control) (protein PCNA_HUMAN (P12004)): 0.6578
- Fold change (treated / control) (protein PDS5A_HUMAN (Q29RF7)): 0.5949
- Fold change (treated / control) (protein PTMA_HUMAN (P06454)): 0.5745
- Fold change (treated / control) (protein RFC2_HUMAN (P35250)): 0.5826
- Fold change (treated / control) (protein RFC3_HUMAN (P40938)): 0.567
- Fold change (treated / control) (protein RFC4_HUMAN (P35249)): 0.5722
- Fold change (treated / control) (protein RFC5_HUMAN (P40937)): 0.6148
- Fold change (treated / control) (protein RL1D1_HUMAN (O76021)): 0.6228
- Fold change (treated / control) (protein RL4_HUMAN (P36578)): 0.563
- Fold change (treated / control) (protein RL10A_HUMAN (P62906)): 0.5923
- Fold change (treated / control) (protein RL13_HUMAN (P26373)): 0.6224
- Fold change (treated / control) (protein RL15_HUMAN (P61313)): 0.6202
- Fold change (treated / control) (protein RL19_HUMAN (P84098)): 0.3072
- Fold change (treated / control) (protein RL23A_HUMAN (P62750)): 0.5699
- Fold change (treated / control) (protein RL23_HUMAN (P62829)): 0.6468
- Fold change (treated / control) (protein RL27A_HUMAN (P46776)): 0.6191
- Fold change (treated / control) (protein RL34_HUMAN (P49207)): 0.2863
- Fold change (treated / control) (protein RL36_HUMAN (Q9Y3U8)): 0.6291
- Fold change (treated / control) (protein RM11_HUMAN (Q9Y3B7)): 0.6501
- Fold change (treated / control) (protein RM45_HUMAN (Q9BRJ2)): 0.6189
- Fold change (treated / control) (protein RM53_HUMAN (Q96EL3)): 0.5657
- Fold change (treated / control) (protein RM54_HUMAN (Q6P161)): 0.6079
- Fold change (treated / control) (protein RPA34_HUMAN (O15446)): 0.6508
- Fold change (treated / control) (protein RPAB5_HUMAN (P62875)): 0.5655
- Fold change (treated / control) (protein RS2_HUMAN (P15880)): 0.6402
- Fold change (treated / control) (protein RS6_HUMAN (P62753)): 0.6108
- Fold change (treated / control) (protein RS9_HUMAN (P46781)): 0.6218
- Fold change (treated / control) (protein S27A3_HUMAN (Q5K4L6)): 0.6711
- Fold change (treated / control) (protein SERC1_HUMAN (Q9NRX5)): 0.3307
- Fold change (treated / control) (protein SIGIR_HUMAN (Q6IA17)): 0.5907
- Fold change (treated / control) (protein SMCA5_HUMAN (O60264)): 0.6602
- Fold change (treated / control) (protein SMRC1_HUMAN (Q92922)): 0.6541
- Fold change (treated / control) (protein SPB1_HUMAN (Q8IY81)): 0.6134
- Fold change (treated / control) (protein STRBP_HUMAN (Q96SI9)): 0.6608
- Fold change (treated / control) (protein SUOX_HUMAN (P51687)): 0.6055
- Fold change (treated / control) (protein TF3C1_HUMAN (Q12789)): 0.6535
- Fold change (treated / control) (protein TF3C5_HUMAN (Q9Y5Q8)): 0.6483
- Fold change (treated / control) (protein TIM8B_HUMAN (Q9Y5J9)): 0.3123
- Fold change (treated / control) (protein UBL5_HUMAN (Q9BZL1)): 0.5618
- Fold change (treated / control) (protein UCRI_HUMAN (P47985)): 0.5774
- Fold change (treated / control) (protein UTP18_HUMAN (Q9Y5J1)): 0.63
- Fold change (treated / control) (protein VIGLN_HUMAN (Q00341)): 0.6343
- Fold change (treated / control) (protein XRN2_HUMAN (Q9H0D6)): 0.664
- Fold change (treated / control) (protein YBOX1_HUMAN (P67809)): 0.6605
- Fold change (treated / control) (protein ZN326_HUMAN (Q5BKZ1)): 0.6081
- Fold change (treated / control) (protein ZN428_HUMAN (Q96B54)): 0.5792
- Fold change (treated / control) (protein ZN595_HUMAN (Q8IYB9)): 0.6231
